Measurements from US9278962B2 (Cytokinetics, Inc., priority 2011, dated 2016).

Tested on: rabbit skeletal myofibrils (approximately 90% fast fibers)
Assay: Activation of fast skeletal myofibrils (PUMA coupled-enzyme ATPase assay, AC1.4)
Type: biochemical
Details: concentration at which the compound increased enzymatic activity by 40%, calcium at pCa25

| Structure (SMILES) | Mean AC1.4 (Table 2) | Mean AC1.4 (Table 3) | further results |
| --- | --- | --- | --- |
| Fc1cccnc1C1(CNc2noc(-c3ccccc3)n2)CCC1 [N-((1-(3-fluoropyridin-2-yl)cyclobutyl)methyl)-5-phenyl-1,2,4-oxadiazol-3-amine] |  |  | Mean AC1.4 (Table 5): D (D=>20 uM) |
| Fc1cccnc1C1(CNc2nsc(-c3ccccc3)n2)CCC1 [N-((1-(3-fluoropyridin-2-yl)cyclobutyl)methyl)-5-phenyl-1,2,4-thiadiazol-3-amine] | D (D=>20 uM) |  |  |
| Fc1cccnc1C1(CNc2nnc(-c3ccccc3)o2)CCC1 [N-((1-(3-fluoropyridin-2-yl)cyclobutyl)methyl)-5-phenyl-1,3,4-oxadiazol-2-amine] |  |  | Mean AC1.4 (Table 5): D (D=>20 uM) |
| Fc1cccnc1C1(CNc2nnc(-c3ccccc3)s2)CCC1 [N-((1-(3-fluoropyridin-2-yl)cyclobutyl)methyl)-5-phenyl-1,3,4-thiadiazol-2-amine] |  | A (A=<1 uM) |  |
| Fc1cccnc1C1(CNc2ncc(-c3ccccc3)s2)CCC1 [N-((1-(3-fluoropyridin-2-yl)cyclobutyl)methyl)-5-phenylthiazol-2-amine] |  |  | Mean AC1.4 (Table 5): A (A=<1 uM) |
| Fc1cccnc1C1(CNc2nc3ccccc3s2)CCC1 [N-((1-(3-fluoropyridin-2-yl)cyclobutyl)methyl)benzo[d] thiazol-2-amine] |  |  | Mean AC1.4 (Table 4): C (C=10-20 uM) |
| Cn1cc(-c2nnc(NC[C@]3(c4ncccc4F)C[C@H](F)C3)s2)cn1 [N-((3-fluoro-1-(3-fluoropyridin-2-yl)cyclobutyl)methyl)-5-(1-methyl-1H-pyrazol-4-yl)-1,3,4-thiadiazol-2-amine] |  | D (D=>20 uM) |  |
| Cn1nccc1-c1nnc(NC[C@]2(c3ncccc3F)C[C@H](F)C2)s1 [N-((3-fluoro-1-(3-fluoropyridin-2-yl)cyclobutyl)methyl)-5-(1-methyl-1H-pyrazol-5-yl)-1,3,4-thiadiazol-2-amine] |  | D (D=>20 uM) |  |
| Cc1ccc(F)c(-c2nnc(NC[C@]3(c4ncccc4F)C[C@H](F)C3)s2)c1 [N-((3-fluoro-1-(3-fluoropyridin-2-yl)cyclobutyl)methyl)-5-(2-fluoro-5-methylphenyl)-1,3,4-thiadiazol-2-amine] |  | A (A=<1 uM) |  |
| C=Cc1ccc(F)c(-c2nnc(NC[C@]3(c4ncccc4F)C[C@H](F)C3)s2)c1 [N-((3-fluoro-1-(3-fluoropyridin-2-yl)cyclobutyl)methyl)-5-(2-fluoro-5-vinylphenyl)-1,3,4-thiadiazol-2-amine] |  | A (A=<1 uM) |  |
| Fc1ccccc1-c1nnc(NC[C@]2(c3ncccc3F)C[C@H](F)C2)s1 [N-((3-fluoro-1-(3-fluoropyridin-2-yl)cyclobutyl)methyl)-5-(2-fluorophenyl)-1,3,4-thiadiazol-2-amine] |  | A (A=<1 uM) |  |
| CSc1ncc(C)c(-c2nnc(NC[C@]3(c4ncccc4F)C[C@H](F)C3)s2)n1 [N-((3-fluoro-1-(3-fluoropyridin-2-yl)cyclobutyl)methyl)-5-(5-methyl-2-(methylthio)pyrimidin-4-yl)-1,3,4-thiadiazol-2-amine] |  | B (B=1-10 uM) |  |
| Fc1cccnc1[C@]1(CNc2nnc(-c3ccon3)s2)C[C@@H](F)C1 [N-((3-fluoro-1-(3-fluoropyridin-2-yl)cyclobutyl)methyl)-5-(isoxazol-3-yl)-1,3,4-thiadiazol-2-amine] |  | C (C=10-20 uM) |  |
| Fc1cccnc1[C@]1(CNc2nnc(-c3ccccn3)s2)C[C@@H](F)C1 [N-((3-fluoro-1-(3-fluoropyridin-2-yl)cyclobutyl)methyl)-5-(pyridin-2-yl)-1,3,4-thiadiazol-2-amine] |  | B (B=1-10 uM) |  |
| Cc1ccsc1-c1nnc(NC[C@]2(c3ncccc3F)C[C@@H](F)C2)s1 [N-(((cis)-3-fluoro-1-(3-fluoropyridin-2-yl)cyclobutyl)methyl)-5-(3-methylthiophen-2-yl)-1,3,4-thiadiazol-2-amine] |  | B (B=1-10 uM) |  |
| Cc1ccc(-c2nnc(NC[C@]3(c4ncccc4F)C[C@@H](F)C3)s2)s1 [N-(((cis)-3-fluoro-1-(3-fluoropyridin-2-yl)cyclobutyl)methyl)-5-(5-methylthiophen-2-yl)-1,3,4-thiadiazol-2-amine] |  | D (D=>20 uM) |  |
| Cc1ccsc1-c1nnc(NC[C@]2(c3ncccc3F)C[C@H](F)C2)s1 [N-(((trans)-3-fluoro-1-(3-fluoropyridin-2-yl)cyclobutyl)methyl)-5-(3-methylthiophen-2-yl)-1,3,4-thiadiazol-2-amine] |  | B (B=1-10 uM) |  |
| Cc1ccc(-c2nnc(NC[C@]3(c4ncccc4F)C[C@H](F)C3)s2)s1 [N-(((trans)-3-fluoro-1-(3-fluoropyridin-2-yl)cyclobutyl)methyl)-5-(5-methylthiophen-2-yl)-1,3,4-thiadiazol-2-amine] |  | B (B=1-10 uM) |  |
| CC(C)(CNc1nc(CCCNC(=O)CO)ns1)c1ccc(F)cc1 [N-[3-(5-{[2-(4-fluorophenyl)-2-methylpropyl]amino}(1,2,4-thiadiazol-3-yl))propyl]-2-hydroxyacetamide] | B (B=1-10 uM) |  |  |
| COC(=O)NCCCc1nsc(NCC(C)(C)c2ccc(F)cc2)n1 [N-[3-(5-{[2-(4-fluorophenyl)-2-methylpropyl]amino}(1,2,4-thiadiazol-3-yl))propyl]methoxycarboxamide] | B (B=1-10 uM) |  |  |

| Structure (SMILES) | Mean AC1.4 (Table 2) | Mean AC1.4 (Table 3) | further results |
| --- | --- | --- | --- |
| CC(=O)NCCCc1nsc(NCC(C)(C)c2ccc(F)cc2)n1 [N-[3-(5-{[2-(4-fluorophenyl)-2-methylpropyl]amino}-1,2,4-thiadiazol-3-yl)propyl]acetamide] | C (C=10-20 uM) |  |  |
| CC(C)(CNc1nc(CNC(=O)CO)ns1)c1ccc(F)cc1 [N-[(5-{[2-(4-fluorophenyl)-2-methylpropyl]amino}(1,2,4-thiadiazol-3-yl))methyl]-2-hydroxyacetamide] | B (B=1-10 uM) |  |  |
| COC(=O)NCc1nsc(NCC(C)(C)c2ccc(F)cc2)n1 [N-[(5-{[2-(4-fluorophenyl)-2-methylpropyl]amino}(1,2,4-thiadiazol-3-yl))methyl]methoxycarboxamide] | B (B=1-10 uM) |  |  |
| CC(=O)NCc1nsc(NCC(C)(C)c2ccc(F)cc2)n1 [N-[(5-{[2-(4-fluorophenyl)-2-methylpropyl]amino}-1,2,4-thiadiazol-3-yl)methyl]acetamide] | C (C=10-20 uM) |  |  |
| COc1cccc(Cc2nsc(NCCc3ccc(Cl)cc3Cl)n2)c1 [[2-(2,4-dichlorophenyl)ethyl]{3-[(3-methoxyphenyl)methyl](1,2,4-thiadiazol-5-yl)}amine] | C (C=10-20 uM) |  |  |
| Cc1ccc(Cc2nsc(NCCc3ccc(Cl)cc3Cl)n2)cc1 [[2-(2,4-dichlorophenyl)ethyl]{3-[(4-methylphenyl)methyl](1,2,4-thiadiazol-5-yl)}amine] | D (D=>20 uM) |  |  |
| Cc1ccc(Cc2nsc(NCCc3c(Cl)cccc3Cl)n2)cc1 [[2-(2,6-dichlorophenyl)ethyl]{3-[(4-methylphenyl)methyl](1,2,4-thiadiazol-5-yl)}amine] | D (D=>20 uM) |  |  |
| COc1cccc(Cc2nsc(NCCc3ccccc3Cl)n2)c1 [[2-(2-chlorophenyl)ethyl]{3-[(3-methoxyphenyl)methyl](1,2,4-thiadiazol-5-yl)}amine] | D (D=>20 uM) |  |  |
| Fc1ccc(Cc2nsc(NCCc3ccccc3Cl)n2)cc1 [[2-(2-chlorophenyl)ethyl]{3-[(4-fluorophenyl)methyl](1,2,4-thiadiazol-5-yl)}amine] | D (D=>20 uM) |  |  |
| Cc1ccc(Cc2nsc(NCCc3ccccc3Cl)n2)cc1 [[2-(2-chlorophenyl)ethyl]{3-[(4-methylphenyl)methyl](1,2,4-thiadiazol-5-yl)}amine] | D (D=>20 uM) |  |  |
| COc1cccc(Cc2nsc(NCCc3ccc(Cl)c(Cl)c3)n2)c1 [[2-(3,4-dichlorophenyl)ethyl]{3-[(3-methoxyphenyl)methyl](1,2,4-thiadiazol-5-yl)}amine] | B (B=1-10 uM) |  |  |
| Clc1ccc(Cc2nsc(NCCc3ccc(Cl)c(Cl)c3)n2)cc1 [[2-(3,4-dichlorophenyl)ethyl]{3-[(4-chlorophenyl)methyl](1,2,4-thiadiazol-5-yl)}amine] | C (C=10-20 uM) |  |  |
| Cc1ccc(Cc2nsc(NCCc3ccc(Cl)c(Cl)c3)n2)cc1 [[2-(3,4-dichlorophenyl)ethyl]{3-[(4-methylphenyl)methyl](1,2,4-thiadiazol-5-yl)}amine] | B (B=1-10 uM) |  |  |
| COc1cccc(Cc2nsc(NCCc3ccc(F)c(F)c3)n2)c1 [[2-(3,4-difluorophenyl)ethyl]{3-[(3-methoxyphenyl)methyl](1,2,4-thiadiazol-5-yl)}amine] | B (B=1-10 uM) |  |  |
| Fc1ccc(Cc2nsc(NCCc3ccc(F)c(F)c3)n2)cc1 [[2-(3,4-difluorophenyl)ethyl]{3-[(4-fluorophenyl)methyl](1,2,4-thiadiazol-5-yl)}amine] | C (C=10-20 uM) |  |  |
| COc1cccc(Cc2nsc(NCCc3cc(F)cc(F)c3)n2)c1 [[2-(3,5-difluorophenyl)ethyl]{3-[(3-methoxyphenyl)methyl](1,2,4-thiadiazol-5-yl)}amine] | D (D=>20 uM) |  |  |
| COc1cccc(Cc2nsc(NCCc3cccc(Cl)c3)n2)c1 [[2-(3-chlorophenyl)ethyl]{3-[(3-methoxyphenyl)methyl](1,2,4-thiadiazol-5-yl)}amine] | C (C=10-20 uM) |  |  |
| Clc1ccc(Cc2nsc(NCCc3cccc(Cl)c3)n2)cc1 [[2-(3-chlorophenyl)ethyl]{3-[(4-chlorophenyl)methyl](1,2,4-thiadiazol-5-yl)}amine] | D (D=>20 uM) |  |  |
| Cc1ccc(Cc2nsc(NCCc3cccc(Cl)c3)n2)cc1 [[2-(3-chlorophenyl)ethyl]{3-[(4-methylphenyl)methyl](1,2,4-thiadiazol-5-yl)}amine] | B (B=1-10 uM) |  |  |
